Converted amounts (≈) assume the structure as drawn. Read-outs that look alike come from different tables or passages of the source.

Series [1] deals with E. coli ATCC 25922. As to the kind of experiment: MIC, broth microdilution (CLSI), Alamar blue. It is filed as cell-based. The settings on record: E. coli ATCC 25922, 24 hours at 37 °C, read-out: Minimum inhibitory concentration (MIC) E. coli. The source says: (§1) The bacterial strains S. aureus ATCC 29213, MRSA ATCC 15187, E. coli ATCC 25922, and P. aeruginosa ATCC 27853 were obtained from ATCC (American Type Culture Collection). Cation-adjusted Mueller–Hinton broth (MHB; Becton–Dickinson, Cockeysville, MD) was used to determine the minimum inhibitory concentration (MIC). Mueller–Hinton agar (MHA; Becton–Dickinson) was used for minimum bactericidal concentration (MBC) studies. Alamar blue (Himedia) was used to detect the MIC value.
(§2) The antibacterial activity of the compounds against S. aureus ATCC 29213, MRSA ATCC 15187, E. coli ATCC 25922, and P. aeruginosa ATCC 27853 was determined through a broth microdilution method according to the guidelines of the Clinical and Laboratory Standards Institute (CLSI).[50] […] Growth control and media control were employed along with 2% DMSO as vehicle control.
(§3) In a 96-well flat bottom plate, the test compounds were two-fold serially diluted in Mueller Hinton Broth (MHB). The final concentrations of the compounds ranged from 100 to 0.08 μM. 100 μL of standardized bacterial inoculum with turbidity equivalent to 0.5 McFarland standard (1.5 × 10^8 CFU mL^−1) was diluted 1 : 100 (1.5 × 10^6 CFU mL^−1) in Mueller Hinton Broth and inoculated in the plates.[51] The plates were incubated for 24 hours at 37 °C. After incubation, 10 μL of freshly prepared Alamar blue (Himedia) was added to each well of the plate, and plates were further incubated at 37 °C for 30 minutes. After incubation, the fluorescence was measured at excitation/emission of 540–570/580–610 nm. The percentage inhibition and viability were calculated for the controls, and the Gompertz curve was utilized to estimate the minimum inhibitory concentration.

Series [2] relates to S. aureus ATCC 29213. Kind of series: MIC, broth microdilution (CLSI), Alamar blue. The settings on record: S. aureus ATCC 29213, 24 hours at 37 °C, read-out: Minimum inhibitory concentration (MIC) S. aureus. It is filed as cell-based.
Excerpt: as §1, §2, §3

The subject of series [3] is P. aeruginosa ATCC 27853. As to the kind of experiment: MIC, broth microdilution (CLSI), Alamar blue. It is filed as cell-based. The settings on record: P. aeruginosa ATCC 27853, 24 hours at 37 °C, read-out: Minimum inhibitory concentration (MIC) P. aeruginosa.
Excerpt: as §1, §2, §3

Series [4] is described as follows: Cell viability assay (MTT). It is filed as cell-based, murine. The settings on record: mouse, RAW 264.7 macrophage cells; RAW 264.7 macrophage cell line, MTT assay. The method, then:
RAW 264.7 cells were acquired from the American type culture collection (ATCC, Manassas, VA) and cultured in Dulbecco's modified eagle's medium (DMEM, Gibco, Life Technologies, NY) supplemented with 10% fetal bovine serum (FBS) at 37 °C and 5% CO2. MTT dye (Himedia) was used to detect CC50 values. The antibiotics ciprofloxacin hydrochloride monohydrate (Himedia), kanamycin sulfate (Himedia), and vancomycin (Himedia) were used for reference in microbiological assays.
The effect of compounds (IBC, IBC-2, and IBC-3) on the viability of cells was evaluated at different concentrations against macrophage cell lines through the 3-(4,5-dimethylthiazol2-yl)-2, 5-diphenyltetrazolium bromide (MTT) assay. The RAW 264.7 cells are monocyte/macrophage-like cells originating from an Abelson leukemia virus-transformed cell line derived from BALB/c mice. Due to their reliability and consistency, these cell lines are widely utilized for both in vitro and in vivo analyses.[52] The MTT assay is a colorimetric assay used to measure the viability and cytotoxicity of cells. The cells (2 × 10^4 cells per well) were grown at 37 °C with 5% CO2 for 48 hours, then exposed to compounds with different concentrations. […] After 20–21 hours, 20 μL of MTT dye at 2.5 mg mL^−1 concentration was added to each well and incubated for 4 hours. 100 μL DMSO solubilized the water-insoluble purple and white formazan produced.[53] The formation of the formazan salt by mitochondrial dehydrogenases was measured at 570.0 nm after incubating for 20 min. The percentage cytotoxicity was calculated with respect to the untreated cells, and the CC50 value was calculated. CC50 was defined as the concentration of an inhibitor that reduces cellular activities by 50% compared to untreated control cultures. The CC50 values were calculated as the concentration where the absorbance was reduced by 50% using GraphPad Prism software.[54] The selectivity index (SI) determines the safety profile of the compound. It is calculated as the ratio of compound concentration at which 50% of cell growth is inhibited compared to untreated cells (CC50) to the effective inhibiting concentration against bacterial strain (MIC). The high SI (>10 fold of MIC) of a drug is proven to have a favorable safety profile.[28] Selectivity index (SI) = CC50 of the compound (μM)/MIC of the compound (μM).

A word on the CC50: it is the concentration giving 50% cytotoxicity. Higher therefore signals better tolerance by the cells. For `CC(C)=CCc1c(O)ccc2c1O/C(=C\c1ccc(O)cc1)C2=O` [IBC-3, (Z)-6-hydroxy-2-(4-hydroxybenzylidene)-7-(3-methylbut-2-en-1-yl)benzofuran-3(2H)-one], the MIC in series [1] is 23 µM (≈ 7.41 µg/mL); in series [1] (Escherichia coli, ATCC25922) it was 23 µM (≈ 7.41 µg/mL); in series [2], 10 µM (≈ 3.22 µg/mL); in series [2] (Staphylococcus aureus, ATCC29213), 10 µM (≈ 3.22 µg/mL); in series [3], 24 µM (≈ 7.74 µg/mL); in series [3] (Pseudomonas aeruginosa, ATCC27853, 24 h), 24 µM (≈ 7.74 µg/mL). In series [4], the CC50 amounted to 50 µM.
